Marks after values point to notes of the source that are not given here.
Experiment: pH-assisted fluorimetric transport assay with calixarene amides (HPTS-loaded liposomes)
Assay type: biochemical
Conditions: for ion transport in sulfate buffers: sodium sulfate-filled LUVs in isotonic solution, up to 50 μM
Experimental: The ability of 1 and 2 to mediate ion flux across a lipid bilayer was studied fluorimetrically. A solution of 1 or 2 was added to a suspension of EYPC large unilamellar vesicles (LUVs) containing the pH-sensitive dye pyranine. An NaOH solution was added to the extravesicular buffer to create a gradient of approximately one pH unit. The resulting electrostatic potential, caused by proton efflux from the liposomes, can be compensated by cation influx or anion efflux, as mediated by the exogenous ligand. Ion transport across the membrane was signaled by the increase in relative fluorescence that accompanied the rise in intravesicular pH.
Liposome Preparation. EYPC HPTS-Containing LUVs, egg yolk 1-α-phosphatidylcholine (EYPC, 60 mg, […]) was dissolved in a CHCl3MeOH mixture, the solution was evaporated under reduced pressure, and the resulting thin film was dried under high vacuum for 2 h. The lipid film was hydrated in 1.2 mL of phosphate buffer (10 mM sodium phosphage, pH=6.4, 75-100 mM MX, M=Na^+, K^+, Cs^+, X=[…], SO4^2−) containing 10 μM HPTS (pyranine 8-hydroxypyrene-1,3,6-trisulfonic acid trisodium salt) for 2 h. The LUV suspension (1 mL) was submitted to high-pressure extrusion at room temperature (2) extrusions through a 0.1 μM polycarbonate membrane afforded LUVs with a diameter of 100 nm). The LUV suspension was separated from extravesicular dye by size exclusion chromatography (SEC) stationary phase: Sephadex G-10, mobile phase:phosphate buffer) and diluted with the same phosphate buffer to give a stock solution with a lipid concentration of 11 mM (assuming 100% of lipid was incorporated into liposomes).
Fluorimetric Transport Assays. pH-Assisted Transport Assays. Typically, 100 μL of HPTS-loaded vesicles (stock solution) was suspended in 1.85 mL of the corresponding buffer and placed into a fluorimetric cell. HPTS emission at 510 nm was monitored with excitation wavelengths at 403 and 460 nm simultaneously. During the experiment, 20 μL of a 0-10 mM THF solution of the compound of interest was added through an injection port, followed by injection of 21 μL of 0.5 M aqueous NaOH. Addition of the NaOH caused a pH increase of approximately 1 pH unit in the extravesicular buffer. Maximal changes in dye emission were obtained at the end of each experiment by lysis of the liposomes with detergent (40 μL of 5% aqueous Triton x100). The final transport trace was obtained as a ratio of the emission intensities monitored at 460 and 403 nm and normalized to 100% of transport.

CCCCNC(=O)COc1c2cccc1Cc1cccc(c1OCC(=O)NCCCC)Cc1cccc(c1OCC(=O)NCCCC)Cc1cccc(c1OCC(=O)NCCCC)C2 [calix[4]arene tetrabutylamide 2, Calix[4]arene tetrabutylamide]
transport activity when buffer changed from NaCl to Na2SO4: essentially complete loss of transport activity
Initial Pseudo-first Order Transport Rate Constants, Na2SO4 (5 μM, 100 mM Na2SO4 inside pH 6.4 and outside pH 7.4, not corrected for unmediated exchange): 1.1^b,d ×10^−3 s^−1
Initial Pseudo-first Order Transport Rate Constants, CsCl (5 μM, 100 mM NaCl inside pH 6.4, 100 mM CsCl outside pH 7.4, not corrected for unmediated exchange): 7.7^b,c ×10^−3 s^−1
Initial Pseudo-first Order Transport Rate Constants, KCl (5 μM, 100 mM NaCl inside pH 6.4, 100 mM KCl outside pH 7.4, not corrected for unmediated exchange): 6.4^b,c ×10^−3 s^−1
Initial Pseudo-first Order Transport Rate Constants, NaCl (5 μM, 100 mM NaCl inside pH 6.4, 100 mM NaCl outside pH 7.4, not corrected for unmediated exchange): 6.8^b,c ×10^−3 s^−1
cation selectivity of ion transport (buffers containing Na, K or Cs): nonselective toward the cation
anion transport selectivity (chloride versus sulfate buffers): pronounced Cl^− over HSO4^− transport selectivity
transport activity (extravesicular Na, K or Cs chloride, ligand:lipid ratio of 1:100): rapid exchange of intra-and extravesicular electrolytes
ion transport in sulfate buffers: not mediated
ion transport in sulfate buffers (listed as calix[4]arene tetrabutylamide): No significant transport
